Source: US20220268782A1, “METHODS FOR PREDICTING AND TREATING CARDIAC DYSFUNCTION” (INSERM (INSTITUT NATIONAL DE LA SANTÉ EAT DE LA RECHERCHE …, priority 2019, published 2022)

What was measured:
Assay type in all cases: cell-based
[1] = system: C2C12 myoblasts; test: PA-induced senescence in C2C12 myoblasts (immunoblot of senescence markers, EdU incorporation); details: C2C12 cells
Experimental: (§1) Cells were washed briefly with ice-cold 1×PBS, scraped in 400 μL T-PER lysis buffer (ThermoFisher) supplemented with 0.1 mM phenylmethylsulphonyl fluoride (PMSF) and protease/phosphatase inhibitor cocktail tablet (ThermoFisher). Pulverised tissue samples (20-30 mg) were lysed in the same buffer accelerated by sonication and passing through a 21 G needle. To pellet any debris, lysates were centrifuged at 10,000 g for 10 minutes at 4° C., with the supernatant transferred to fresh tubes. Protein concentrations were determined with Bradford assay (Biorad) and lysates were diluted to equal concentration with lysis buffer. Protein lysates were then mixed with Laemmli buffer, vortexed and heated to 95° C. for 5 min. Equal amounts of protein lysates in parallel with protein molecular weight marker (ThermoFisher) were loaded onto pre-cast polyacrylamide gels (Nupage 10 or 12% Bis Tris gel, Novex, Invitrogen) and separated by electrophoresis at 200V for 1 hour. Proteins were transferred onto polyvinylidene difluoride (PVDF) membrane (Invitrogen) using an electrophoretic transfer cell (Mini Trans-Blot, Bio-Rad) in ice-cold transfer buffer (48 mM Tris base, […], 0.1% SDS, 20% methanol (v/v)) at 300 mA for 2 hours. Membranes were blocked in 1× skimmed milk (ThermoFisher) for 1 hour at room temperature, followed by overnight incubation with primary antibody diluted in blocking buffer at 4° C. Next day membranes were washed, followed by 60 minutes incubation in the corresponding horseradish peroxidase (HRP)-conjugated secondary antibody diluted 1:2000-10000 in blocking buffer (all Abcam). Blots were developed using enhanced chemiluminescence (ECL) reagents (normal, Prime & Select) and digital images were acquired using an imaging system (Azure Biosystems). Membranes were usually stripped of antibodies and reprobed with an antibody targeting a protein serving as loading control (α-actinin for hearts & β-actin for all others). For this procedure, membranes were placed in Guanidine-HCl-based stripping solution (6M Guanidine-HCl, 0.2% Nonidet P-40, 0.1M β-mercaptoethanol, 20 mM Tris-HCl, pH 7.5 and 100 mM 2-mercaptoethanol) and incubated for 10 minutes at room temperature with gentle agitation, followed by extensive washing and re-blocking.^5
(§2) C2C12 (ATCC® CRL-1772™) myoblasts maintained in DMEM supplemented with L-glutamine (2 mM), penicillin/streptomycin (1%) and 5% fetal bovine serum (FBS) were seeded either at a density of 5×10^4 cells (<50%) per well in 24-well plates or 10^4 cells in 4-well chamber slides. Cells were with L-phenylalanine (1-10 mM)+BH4 (10 μM) and incubation with increasing concentrations of N-acetylcysteine (0.5, 2.5, 5 mM) vs. vehicle overnight as indicated. Cells were analysed for oxidative stress with MitoSOX™ (mitochondrial superoxide; 5 μM, ThermoFisher Scientific), CellROX™ (cytosolic superoxide; 5 μM, ThermoFisher Scientific), gene or protein expression, or various metabolites (see below).

[2] = system: C2C12 myoblasts; test: Oxidative stress in C2C12 cells (CellROX cytosolic superoxide, MitoSOX mitochondrial superoxide, GSH)
Experimental: as §2
(§3) Levels of reduced glutathione (GSH; ThermoFisher), phenylalanine (BioVision) and tyrosine (BioVision) were determined from cells or plasma, with respective agents/kits following the manufacturer's recommendations. Specifically, GSH levels were estimated with the aid of ThiolTracker™ Violet fluorescent probe (ThermoFisher). Plasma and liver phenylalanine levels were determined using an enzyme-coupled, fluorometric method (BioVision). Briefly, samples were deproteinized via trichloroacetate precipitation, neutralised, tyrosinase-treated (to remove tyrosine that may interfere) and diluted to fit in the standard curve. Fluorescence reading took place at 587 nm after excitation at 535 nm. Levels of tyrosine in cells or conditioned media were determined after deproteinization using 10 kDa cut-off columns with an enzyme-coupled, colorimetric method with reading at 491 nm (BioVision).

[3] = system: AML-12 hepatocytes; test: AML-12 hepatocytes: p21, Pah immunoblot and tyrosine production; details: Nutlin3a vs. vehicle
Experimental: as §1
AML12 cells (ATCC® CRL-2254™) were maintained in DMEM/F-12 (1:1) culture media supplemented with 10% FBS, 10 μg/ml insulin, 5.5 μg/ml transferrin, 5 ng/ml selenium, 40 ng/ml dexamethasone and 1% penicillin/streptomycin. Cells were sub-cultivated from subconfluent flasks with a ratio from 1:4 to 1:8. For WB analysis, cells were plated on 6-well plates and harvested at 80-90% of confluence. AML12 cells were transfected with indicated siRNA (Table 2) at 80% confluence using Lipofectamine RNAiMAX Transfection Reagent (ThermoFischer Scientific 13778030) following the manufacturer's instructions. Transfection efficiency was constantly checked using BLOCK-IT Alexa Fluor Red Fluorescent Control (ThermoFischer Scientific 14750100).
as §3

CC(=O)N[C@@H](CS)C(=O)O [NAC, N-acetylcysteine]
p21 induction by PA ([1]; PA + N-acetylcysteine (0.5, 2.5, 5 mM), data not shown): failed to prevent | cytosolic superoxide levels under PA treatment ([2]; PA plus co-treatment (BH4 10 μM or NAC), FIG. 1f): restored normal | reduced glutathione (GSH) levels under PA treatment ([2]; PA plus co-treatment, data not shown): restored normal

N[C@@H](Cc1ccc(Cl)cc1)C(=O)O (racemic) [4-CPA, 4-chlorophenylalanine]
BH4 antagonism of PA-dependent senescence ([1]; PA 5 mM + BH4 10 μM + 4-CPA 1.5 mM, FIG. 1c-d): reversed | BH4 rescue of superoxide levels ([2]; PA + BH4 + 4-CPA, FIG. 1f): prevented

COc1ccc(C2=N[C@@H](c3ccc(Cl)cc3)[C@@H](c3ccc(Cl)cc3)N2C(=O)N2CCNC(=O)C2)c(OC(C)C)c1 [Nutlin3a]
Pah ([3]; FIG. 4o): downregulated | hepatocyte senescence (i.e. p-p53 and p21) ([3]; FIG. 4o): induced | tyrosine production (tyrosine levels in media) ([3]; FIG. 4p): depressed
